Patent US9808511B2, “Method for treating alopecia with B-type natriuretic peptide” (IGISU Co., Ltd., priority 2011, dated 2017)
Bridges are numbered along the chain shown (N, C = ends). Where no end group is shown, it is not given here.

Tests used:
[1] = system: androgenetic alopecia; assay: Case tests: application to hair loss sites of androgenetic alopecia patients; type: in vivo, human
Experimental: (§1) The test subjects were patients with alopecia areata, androgenetic alopecia, postpartum alopecia, female pattern alopecia, alopecia pityroides, and senile alopecia. Diagnosis and treatment of these test subjects were carried out by the present inventors as physicians.
(§2) Clinical classification of alopecia was carried out in accordance with the Classification of the Japanese Dermatological Association, and evaluation of the severity of alopecia areata was carried out in accordance with the above-mentioned ‘USA Alopecia Areata Evaluation Guidelines’, the area of hair loss being classified using 6 grades of S0 to S5 and the hair loss site being classified using 3 grades of B0 to B2.
In general, in order to confirm the effect of an external medicine in an individual case, a method involving separate left and right applications is desirable. […] With regard to the test of the preparation of the present invention, a preparatory test was carried out in accordance with the separate left and right applications method. However, taking into consideration medical ethics, the preparatory test in accordance with the separate left and right applications method was minimized, and when a preparatory test was not carried out, a therapeutic effect was evaluated by comparison between that before application and that after application.
Prior to administration of the ANP gel, BNP gel, CNP gel, BNP ointment, and CNP ointment of the present invention, as is routine for dermatological diagnosis and treatment, the test subjects were interviewed regarding age, gender, history of disease, and family history of disease; when an allergic predisposition was suspected, a scratch test against the main allergens and an evaluation thereof were carried out.
(§3) In order to carry out evaluation objectively, photographs before and after application of the NP preparation were recorded in all cases. Photographs of some of these cases are shown in the drawings.

[2] = system: seborrheic alopecia; assay: Case tests: application to hair loss sites of seborrheic alopecia patients; type: in vivo, human; conditions: previous treatment
[3] = system: alopecia; assay: Conclusions from case test results (all types of alopecia); type: in vivo, human; conditions: external application; for Adverse events resulting from application: all cases
Experimental: as §1
(§4) In general, in order to confirm the effect of an external medicine in an individual case, a method involving separate left and right applications is desirable. The separate left and right application method is a method in which, for example, an external medicine containing an active ingredient to be tested is applied to the left-hand side of an affected site, and an external medicine not containing the active ingredient is applied to the right-hand side, thus enabling a therapeutic effect to be confirmed. With regard to the test of the preparation of the present invention, a preparatory test was carried out in accordance with the separate left and right applications method. However, taking into consideration medical ethics, the preparatory test in accordance with the separate left and right applications method was minimized, and when a preparatory test was not carried out, a therapeutic effect was evaluated by comparison between that before application and that after application.
as §3

[4] = system: thin head hair; conditions: applied twice a day after hair washing; cited from earlier work
[5] = system: alopecia areata; assay: Case tests: application to bald areas of alopecia areata patients; type: in vivo, human; conditions: previous treatment of the test subject (history); one value per case
Experimental: as §1, §2
In general, in order to confirm the effect of an external medicine in an individual case, a method involving separate left and right applications is desirable. […] However, taking into consideration medical ethics, the preparatory test in accordance with the separate left and right applications method was minimized, and when a preparatory test was not carried out, a therapeutic effect was evaluated by comparison between that before application and that after application. […]
(§5) In order to carry out evaluation objectively, photographs before and after application of the NP preparation were recorded in all cases. […]

[6] = system: postpartum alopecia; assay: Case tests: application to hair loss sites of postpartum alopecia patients; type: in vivo, human; conditions: case C18
Experimental: as §1
as §4, with “application. […]” for “application.”
as §5

[7] = system: female pattern alopecia; assay: Case tests: application to thinning hair sites of female pattern alopecia patients; type: in vivo, human; conditions: previous treatment
Experimental: as §1
as §4, with “application. […]” for “application.”
as §5

[8] = system: alopecia pityroides; assay: Case tests: application to hair loss sites of alopecia pityroides patients; type: in vivo, human; conditions: previous treatment
Experimental: as §1, §4
Prior to administration of the ANP gel, BNP gel, CNP gel, BNP ointment, and CNP ointment of the present invention, as is routine for dermatological diagnosis and treatment, the test subjects were interviewed regarding age, gender, history of disease, and family history of disease; when an allergic predisposition was suspected, a scratch test against the main allergens and an evaluation thereof were carried out. In dermatological diagnosis and treatment, since there are a relatively large number of patients who have strong immunoreactivity toward a specific allergen, or a disease such as atopic dermatitis that is suspected to be related to having an allergic predisposition, in order to assist diagnosis, an interview with respect to family history and previous history of allergic disease in addition to gender and age, and a scratch test toward the main allergens, are widely carried out as simple supplemental test methods.
Table 1 to Table 23 show the results of interviews with the test subjects and the results of the scratch test together with evaluation of the diagnostic findings and symptoms of the test subjects carried out in [Example 1] above.
as §3

[9] = system: cancer chemotherapy drug-induced alopecia; assay: Case tests: application to hair loss sites of cancer chemotherapy drug-induced alopecia patients; type: in vivo, human
[10] = system: androgenetic alopecia; conditions: androgenetic alopecia in males; cited from earlier work
[11] = previous treatment of the test subject (history), one value per case
[12] = case C35, previous treatment (interview)

## CC1(C)[C@@H](O)CC[C@]2(C)[C@H]3C(=O)C=C4[C@@H]5C[C@@](C)(C(=O)O)CC[C@]5(C)CC[C@@]4(C)[C@]3(C)CC[C@@H]12 [glycyrrhetinic acid]
[1]; [11]
  Effect of glycyrrhetinic acid: there had been no effect
[2]; case A12 (=A9, B11)
  Effect of glycyrrhetinic acid: No effect
[2]; case B22 (=A9, B11)
  Effect of glycyrrhetinic acid: No effect

## O=C(O)CCCC[C@@H]1SC[C@@H]2NC(=O)N[C@@H]21 [biotin]
[1]; previous treatment, cases C39, C26, B29
  Effect of conventional preparation: there had been no effect

## human ANP(1-28) (SLRRSSCFGGRMDRIGAQSGLGCNSFRY; disulfide 7-23; listed as Homo sapiens)
[3]; agent containing the peptide as an active ingredient
  Therapeutic effect, conclusions from case test results: effective only for alopecia in which there was no erythema, scale, seborrheic desquamation, etc. on the scalp
[4]
  Hair growth: downy hair-like hair growth was observed on the frontal region with 1 week of ANP administration

## COC(=O)CCC[N+](C)(C)C.[Cl-] [carpronium chloride]
[5]
  Effect of carpronium chloride: No effect
[6]; previous treatment
  Effect of carpronium chloride: No effect
[6]; previous treatment for 5 months
  Effect of conventional preparation: thinning hair on the crown had not improved
[7]; case C19
  Effect of carpronium chloride: No effect
[7]; cases B20, C19
  Effect of conventional preparation: there had been no effect
[2]; case B21 (=A8, B8)
  Effect of carpronium chloride: No effect
[8]; case A13 (=A6, C3, C4)
  Effect of carpronium chloride: No effect
[8]; case C30
  Effect of carpronium chloride: No effect
[8]; case C33
  Effect of carpronium chloride: No effect
[9]; [12]
  Effect of carpronium chloride: No effect
[9]; case C35, previous application for 6 months
  Effect of conventional preparation: There had been no effect

## Nc1cc(N2CCCCC2)nc(N)[n+]1[O-] [minoxidil]
[1]; case B9, previous treatment
  Effect of minoxidil: No effect
[1]; case C16, previous treatment
  Effect of minoxidil: No effect
[1]; [11]
  Effect of minoxidil: No effect
[2]; case A12 (=A9, B11)
  Effect of minoxidil: No effect
[2]; case B22 (=A9, B11)
  Effect of minoxidil: No effect
[8]; case B28
  Effect of minoxidil: No effect

## CC[C@H](C)[C@@H]1NC(=O)[C@H](CCCNC(=N)N)NC(=O)[C@H](CC(=O)O)NC(=O)[C@H](CC(C)C)NC(=O)[C@H](CCCCN)NC(=O)[C@H](CC(C)C)NC(=O)CNC(=O)[C@H](Cc2ccccc2)NC(=O)[C@@H](NC(=O)CNC(=O)[C@H](CCCCN)NC(=O)[C@H](CO)NC(=O)[C@H](CC(C)C)NC(=O)CN)CSSC[C@@H](C(=O)O)NC(=O)CNC(=O)[C@H](CC(C)C)NC(=O)CNC(=O)[C@H](CO)NC(=O)[C@H](CCSC)NC(=O)[C@H](CO)NC(=O)CNC1=O [CNP, human CNP-22]
[3]
  Adverse events resulting from application: did not exhibit any adverse events such as local symptoms of irritation, skin atrophy, or an itching sensation

## COc1ccc2cc1Oc1ccc(cc1)C[C@H]1c3c(cc4c(c3Oc3cc5c(cc3OC)CCN(C)[C@@H]5C2)OCO4)CCN1C [cepharanthin]
[5]
  Effect of cepharanthin: there had been no therapeutic effect
[9]; [12]
  Effect of cepharanthin: No effect

## CC[C@H](C)[C@@H]1NC(=O)[C@H](CCCNC(=N)N)NC(=O)[C@H](CC(=O)O)NC(=O)[C@H](CCSC)NC(=O)[C@H](CCCCN)NC(=O)[C@H](CCCNC(=N)N)NC(=O)CNC(=O)[C@H](Cc2ccccc2)NC(=O)[C@@H](NC(=O)CNC(=O)[C@H](CO)NC(=O)CNC(=O)[C@H](CCC(N)=O)NC(=O)[C@@H](NC(=O)[C@H](CCSC)NC(=O)[C@H](CCCCN)NC(=O)[C@@H]2CCCN2C(=O)[C@@H](N)CO)C(C)C)CSSC[C@@H](C(=O)N[C@@H](CCCCN)C(=O)N[C@H](C(=O)N[C@@H](CC(C)C)C(=O)N[C@@H](CCCN=C(N)N)C(=O)N[C@@H](CCCN=C(N)N)C(=O)N[C@@H](Cc2cnc[nH]2)C(=O)O)C(C)C)NC(=O)CNC(=O)[C@H](CC(C)C)NC(=O)CNC(=O)[C@H](CO)NC(=O)[C@H](CO)NC(=O)[C@H](CO)NC(=O)[C@H](CO)NC1=O [BNP, human BNP-32]
[3]
  Adverse events resulting from application: did not exhibit any adverse events such as local symptoms of irritation, skin atrophy, or an itching sensation

## CC(C)(C)NC(=O)[C@H]1CC[C@H]2[C@@H]3CC[C@H]4NC(=O)C=C[C@]4(C)[C@H]3CC[C@]12C [Finasteride, finasteride]
[10]
  Proportion of patients improved: about ¼
